These results are taken from patent US12391737B2, “Soluble NPY2 receptor agonists” (Boehringer Ingelheim International GmbH, priority 2020, dated 2025).

In series [1] the target is T1, Human Neuropeptide Y2 Receptor (Homo sapiens, UniProt P49146).
T1 construct: purchased CHEMICON HTS066M
T1 sequence (P49146 1-381): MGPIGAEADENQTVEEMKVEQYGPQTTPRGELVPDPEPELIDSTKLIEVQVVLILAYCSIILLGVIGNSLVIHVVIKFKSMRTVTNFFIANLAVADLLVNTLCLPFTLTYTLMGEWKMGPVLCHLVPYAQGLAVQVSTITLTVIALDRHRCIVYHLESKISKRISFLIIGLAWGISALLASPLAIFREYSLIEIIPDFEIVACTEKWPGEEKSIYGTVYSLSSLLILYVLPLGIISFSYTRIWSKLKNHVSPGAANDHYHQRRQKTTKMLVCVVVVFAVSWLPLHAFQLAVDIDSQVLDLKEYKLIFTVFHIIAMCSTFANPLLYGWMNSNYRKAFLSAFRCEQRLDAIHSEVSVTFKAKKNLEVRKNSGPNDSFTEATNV
In words: Radioligand binding competition assay (RLB). The note with it: Table 3, 125I-PYY(1-36) competition; read-out: Ki. The essentials:
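Receptor membranes, 0.5 μg/well; buffer 50 mM HEPES/5 mM MgCl2/1 mM CaCl2/0.2% ovalbumin, pH 7.4; 2 h RT, shaking. GF/C filtration, cold HEPES/500 mM NaCl wash, scintillation count. IC50 by nonlinear regression.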

The nature of another series: Solubility determination. To be noted: for Sol6: pH 6; for Sol7: pH 7. Put shortly:
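Solubility is derived from the ratio of reversed-phase peak areas, filtered sample over a control dissolved at 1 mg/ml in 50% acetonitrile. Peptides are agitated for 2 hours at room temperature in 0.1 M sodium diphosphate at pH 6.4 or 7.0, aiming at 10 mg/ml.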

Molecules are shown by their SMILES.

Turning to `CC(C)CC(=O)N[C@@H](C)C(=O)N1CCC[C@H]1C(=O)N[C@@H](C)C(=O)N[C@@H](CCCCNC(=O)CCCCCNC(=O)CC[C@H](NC(=O)CCCCCCCCCCCCCCCCC(=O)O)C(=O)O)C(=O)N1CCC[C@H]1C(=O)N[C@@H](CCC(=O)O)C(=O)N[C@@H](CCC(=O)O)C(=O)N[C@@H](CC(=O)O)C(=O)N[C@@H](C)C(=O)N[C@@H](CO)C(=O)N1CCC[C@H]1C(=O)N[C@@H](CCC(=O)O)C(=O)N[C@@H](CCC(=O)O)C(=O)N[C@H](C(=O)N[C@@H](CCC(N)=O)C(=O)N[C@@H](CCCNC(=N)N)C(=O)N[C@@H](Cc1ccc(O)cc1)C(=O)N[C@@H](Cc1ccc(O)cc1)C(=O)N[C@H](C(=O)N[C@@H](CO)C(=O)N[C@@H](CC(C)C)C(=O)N[C@@H](CCCNC(=N)N)C(=O)N[C@@H](Cc1c[nH]cn1)C(=O)N[C@@H](Cc1ccc(O)cc1)C(=O)N[C@@H](Cc1ccc(O)cc1)C(=O)N[C@@H](CC(N)=O)C(=O)N[C@@H](Cc1c[nH]c2ccccc12)C(=O)N[C@@H](CC(C)C)C(=O)N[C@H](C(=O)N[C@@H](CCCNC(=N)N)C(=O)N[C@@H](CCC(N)=O)C(=O)N[C@@H](CCCNC(=N)N)C(=O)N[C@@H](Cc1ccc(O)cc1)C(N)=O)[C@@H](C)O)C(C)C)[C@@H](C)O` [Compound 85, N{alpha-4}-(3-methylbutanoyl)-N{epsilon-7}-(6-[(4S)-4-carboxy-4-(17-carboxyheptadecanamido)butanamido]hexanoyl)-[4A,6A,7K,9E,17T,18Q,22V,28Y,30W,31L]-hPYY(4-36)], the Ki (in general, the equilibrium dissociation constant of an inhibitor or competing ligand from its target) in series [1] amounted to 1.61 nM. In the series “Solubility determination”, the “Sol6” value was 8.6 mg/mL and the “Sol7” value stood at 9.1 mg/mL.

Turning to `CC(C)CC(=O)N[C@@H](C)C(=O)N1CCC[C@H]1C(=O)N[C@@H](CCC(=O)O)C(=O)N[C@@H](CCCCNC(=O)CCCCCNC(=O)CC[C@H](NC(=O)CCCCCCCCCCCCCCCCC(=O)O)C(=O)O)C(=O)N1CCC[C@H]1C(=O)N[C@@H](CCC(=O)O)C(=O)N[C@@H](CCC(=O)O)C(=O)N[C@@H](CC(=O)O)C(=O)N[C@@H](C)C(=O)N[C@H](C(=O)N1CCC[C@H]1C(=O)N[C@@H](CCC(=O)O)C(=O)N[C@@H](CCC(=O)O)C(=O)N[C@@H](CC(C)C)C(=O)N[C@@H](CCC(N)=O)C(=O)N[C@@H](CCCNC(=N)N)C(=O)N[C@@H](Cc1ccc(O)cc1)C(=O)N[C@@H](Cc1ccc(O)cc1)C(=O)N[C@H](C(=O)N[C@@H](CO)C(=O)N[C@@H](CC(C)C)C(=O)N[C@@H](CCCNC(=N)N)C(=O)N[C@@H](Cc1c[nH]cn1)C(=O)N[C@@H](Cc1ccc(O)cc1)C(=O)N[C@@H](Cc1ccc(O)cc1)C(=O)N[C@@H](CC(N)=O)C(=O)N[C@@H](Cc1c[nH]c2ccccc12)C(=O)N[C@@H](CC(C)C)C(=O)N[C@@H](CC(C)C)C(=O)N[C@@H](CCCNC(=N)N)C(=O)N[C@@H](CCC(N)=O)C(=O)N[C@@H](CCCNC(=N)N)C(=O)N[C@@H](Cc1ccc(O)cc1)C(N)=O)C(C)C)[C@@H](C)O` [Compound 137, N{alpha-4}-(3-methylbutanoyl)-N{epsilon-7}-(6-[(4S)-4-carboxy-4-(17-carboxyheptadecanamido)butanamido]hexanoyl)-[4A,7K,9E,13T,18Q,22V,28Y,30W,31L,32L]-hPYY(4-36)], in series [1], the Ki came to 49.6 nM. Besides, in “Solubility determination”, the “Sol6” value was above 10.0 mg/mL and the “Sol7” value is above 10.0 mg/mL.

For `CC(C)CC(=O)N[C@@H](C)C(=O)N1CCC[C@H]1C(=O)N[C@@H](CCC(=O)O)C(=O)N[C@@H](CCCCNC(=O)CCCCCNC(=O)CC[C@H](NC(=O)CCCCCCCCCCCCCCCCC(=O)O)C(=O)O)C(=O)N1CCC[C@H]1C(=O)N[C@@H](CCC(=O)O)C(=O)N[C@@H](C)C(=O)N[C@@H](CC(=O)O)C(=O)N[C@@H](C)C(=O)N[C@@H](CO)C(=O)N1CCC[C@H]1C(=O)N[C@@H](CCC(=O)O)C(=O)N[C@@H](CCC(=O)O)C(=O)N[C@H](C(=O)N[C@@H](CCC(N)=O)C(=O)N[C@@H](CCCNC(=N)N)C(=O)N[C@@H](Cc1ccc(O)cc1)C(=O)N[C@@H](Cc1ccc(O)cc1)C(=O)N[C@H](C(=O)N[C@@H](C)C(=O)N[C@@H](CC(C)C)C(=O)N[C@@H](CCCNC(=N)N)C(=O)N[C@@H](Cc1c[nH]cn1)C(=O)N[C@@H](Cc1ccc(O)cc1)C(=O)N[C@@H](Cc1ccc(O)cc1)C(=O)N[C@@H](CC(N)=O)C(=O)N[C@@H](Cc1c[nH]c2ccccc12)C(=O)N[C@@H](CC(C)C)C(=O)N[C@H](C(=O)N[C@@H](CCCNC(=N)N)C(=O)N[C@@H](CCC(N)=O)C(=O)N[C@@H](CCCNC(=N)N)C(=O)N[C@@H](Cc1ccc(O)cc1)C(N)=O)[C@@H](C)O)C(C)C)[C@@H](C)O` [Compound 179, N{alpha-4}-(3-methylbutanoyl)-N{epsilon-7}-(6-[(4S)-4-carboxy-4-(17-carboxyheptadecanamido)butanamido]hexanoyl)-[4A,7K,9E,10A,17T,18Q,22V,23A,28Y,30W,31L]-hPYY(4-36)], the Ki in series [1] came out at 0.89 nM. In “Solubility determination”, the “Sol6” value is 8.1 mg/mL and the “Sol7” value was 8.3 mg/mL.

On to `CC(C)CC(=O)N[C@@H](C)C(=O)N1CCC[C@H]1C(=O)N[C@@H](CCC(=O)O)C(=O)N[C@@H](CCCCNC(=O)CCCCCNC(=O)CC[C@H](NC(=O)CCCCCCCCCCCCCCCCC(=O)O)C(=O)O)C(=O)N1CCC[C@H]1C(=O)N[C@@H](CCC(=O)O)C(=O)N[C@@H](C)C(=O)N[C@@H](CC(=O)O)C(=O)N[C@@H](C)C(=O)N[C@H](C(=O)N1CCC[C@H]1C(=O)N[C@@H](CCC(=O)O)C(=O)N[C@@H](CCC(=O)O)C(=O)N[C@@H](CC(C)C)C(=O)N[C@@H](CCC(N)=O)C(=O)N[C@@H](CCCNC(=N)N)C(=O)N[C@@H](Cc1ccc(O)cc1)C(=O)N[C@@H](Cc1ccc(O)cc1)C(=O)N[C@H](C(=O)N[C@@H](CO)C(=O)N[C@@H](CC(C)C)C(=O)N[C@@H](CCCNC(=N)N)C(=O)N[C@@H](Cc1c[nH]cn1)C(=O)N[C@@H](Cc1ccc(O)cc1)C(=O)N[C@@H](Cc1ccc(O)cc1)C(=O)N[C@@H](CC(N)=O)C(=O)N[C@@H](Cc1c[nH]c2ccccc12)C(=O)N[C@@H](CC(C)C)C(=O)N[C@H](C(=O)N[C@@H](CCCNC(=N)N)C(=O)N[C@@H](CCC(N)=O)C(=O)N[C@@H](CCCNC(=N)N)C(=O)N[C@@H](Cc1ccc(O)cc1)C(N)=O)[C@@H](C)O)C(C)C)[C@@H](C)O` [Compound 132, N{alpha-4}-(3-methylbutanoyl)-N{epsilon-7}-(6-[(4S)-4-carboxy-4-(17-carboxyheptadecanamido)butanamido]hexanoyl)-[4A,7K,9E,10A,13T,18Q,22V,28Y,30W,31L]-hPYY(4-36)], for which the Ki in series [1] was determined as 2.75 nM. For the same compound, in “Solubility determination”, the “Sol6” value was found to be 8.7 mg/mL and the “Sol7” value was 9.3 mg/mL.
